Test results as given in PMC11466185, “Mechanisms and efficacy of small molecule latency-promoting agents to inhibit HIV reactivation ex vivo” (JCI Insight, 2024).
Entries after “also recorded” stand apart in the source; their conditions may differ.

Tests used:
[1] = system: PBMCs; test: Total number of live cells (proliferation) by trypan blue staining at day 6; assay type: cell-based, human; conditions: for Total live cell numbers (proliferation) compared with activated DMSO (in words) / Total number of live cells (Fig 6A): day 6; for Total live cell numbers (proliferation) compared with activated DMSO (in words): Figure 6A; for Fig 6B: total live cells relative to DMSO+CD3/28: DMSO+CD3/28 = 100
Experimental: Some of our candidate LPAs can block the effects of T cell activation, which could affect T cell proliferation. Therefore, we evaluated the extent to which variations in the level of infected cells may contribute to reductions in different HIV RNA transcripts. We measured the total number of viable cells (as a measure of proliferation) and the conserved U3-U5 LTR HIV DNA region (as a measure of total infection frequency) at day 6.
(A) After 6 days, the total number of live cells was measured by trypan blue staining and then normalized to the levels of the activated DMSO (% of activated DMSO). All conditions were tested in the presence of CD3^+/CD28^+ T cell–activating beads, except for the unactivated DMSO condition. Bars indicate medians, and different colors indicate individual study participants. Comparisons were performed using Wilcoxon’s signed-rank test. (B) Total cellular DNA was extracted, and the levels of U3-U5 HIV DNA were measured to quantify infection frequency at 6 days. HIV DNA levels were normalized to copies per 10^6 cells using the input of cellular DNA (assuming 1 μg of total DNA corresponds to 160,000 cells) and then normalized to the activated DMSO control (% of activated DMSO). Bars indicate medians, and different colors indicate individual study participants.

[2] = system: PolyA HIV RNA in the supernatant; test: Supernatant viral RNA (polyadenylated HIV RNA, RT-ddPCR) at day 6 after T cell activation; assay type: cell-based; conditions: for Polyadenylated HIV RNA in supernatant (Fig 5, Fig S6B) / Polyadenylated HIV RNA in supernatant (Fig 5): day 6; for Viral RNA in supernatant (PolyA HIV RNA), median relative to activated DMSO: day 6 after anti-CD3/CD28 activation, Figure 5
Experimental: PBMCs were cultured in the presence of individual drugs in DMSO or DMSO alone as control, activated (anti-CD3/CD28), and assessed for levels of PolyA HIV RNA in the supernatant at day 6.
Each drug was tested in PBMCs from 6 ART-suppressed study participants (except for triptolide, n = 5). PBMCs were aliquoted into wells at 6 × 10^6 cells/well. After activation, the cells were cultured with antiretrovirals in the presence of individual drugs in DMSO or DMSO alone as control. All conditions were tested in the presence of CD3/28 T cell–activating beads, except for the unactivated DMSO condition. After 6 days, RNA was extracted from the culture supernatant. Polyadenylated HIV RNA in the supernatant was quantified by RT-ddPCR, expressed as copies/mL, and then normalized to the levels of the activated DMSO (% of activated DMSO). Medians and IQR are presented, as well as the individual values per study participant in different colors. Comparisons were performed using Wilcoxon’s signed-rank test.
For quantification of cell-associated HIV transcripts, PBMCs were harvested either after 24 hours or after 6 days. The cell viabilities were measured by trypan blue staining; then the cells were pelleted by centrifuging at 300g for 6 minutes and stored at –80°C. For quantification of virion-associated HIV RNA, cell culture supernatant was collected from 6 × 10^6 PBMCs that were treated and activated for 6 days as described above. Residual cells and cellular debris were subsequently removed from the supernatant by differential centrifugation (300g for 6 minutes, then 20,000g for 10 minutes), and the supernatant was stored at –80°C.
Total cellular DNA and RNA were extracted in parallel using Trireagent (Molecular Research Center) according to the manufacturer’s instructions, except for study participants 2147 and 2461 (Figure 4), for whom DNA and RNA were extracted using the QIAGEN AllPrep DNA/RNA/miRNA Universal Kit with on-column DNase I treatment of the RNA and the manufacturer’s modification to enhance recovery of short transcripts. RNA and DNA concentrations were measured using UV spectrophotometry (NanoDrop One, Thermo Fisher Scientific). Total initiated HIV (TAR) transcripts were quantified by a 3-step polyadenylation RT-ddPCR as described previously ([8], [84]). HIV 5′ elongated (LLTR), midtranscribed (Pol), completed (PolyA), and multiply spliced (TatRev) transcripts were quantified by a 2-step RT-ddPCR as previously described ([8]). The levels of each HIV transcript were normalized to 1 μg of total cellular RNA and expressed as a percentage of the (activated) DMSO control. To quantify virion-associated RNA in supernatant, RNA was extracted from 400 μL supernatant using Trireagent-LS (Molecular Research Center) according to the manufacturer’s instructions. Levels of U3-polyadenylated HIV RNA were measured in the supernatant by RT-ddPCR, normalized to copies/mL, and expressed as a percentage of the activated DMSO. For measuring the HIV infection frequency at day 6, the HIV DNA U3-U5 LTR region was quantified by using ddPCR as described previously ([8]). HIV DNA copies were normalized to cell numbers according to the mass of DNA input per well (calculated from the DNA concentration and input volume) ([85]).

Compound | Total live cell numbers (proliferation) compared with activated DMSO (in words) [1] | Polyadenylated HIV RNA in supernatant (Fig 5, Fig S6B) ([2]; study participant 150b) | Polyadenylated HIV RNA in supernatant (Fig 5, Fig S6B) ([2]; study participant 1713) | Polyadenylated HIV RNA in supernatant (Fig 5) ([2]; study participant 2147b) | Polyadenylated HIV RNA in supernatant (Fig 5) ([2]; study participant 2256) | Polyadenylated HIV RNA in supernatant (Fig 5) ([2]; study participant 2750) | Polyadenylated HIV RNA in supernatant (Fig 5) ([2]; study participant 5557) | Viral RNA in supernatant (PolyA HIV RNA), median relative to activated DMSO [2] | Polyadenylated HIV RNA in supernatant (Fig 5) ([2]; study participant 2027) | Polyadenylated HIV RNA in supernatant (Fig 5) ([2]; study participant 2161) | Fig 6B: total live cells relative to DMSO+CD3/28 ([1]; participant 2027) | Fig 6B: total live cells relative to DMSO+CD3/28 ([1]; participant 2147a) | Fig 6B: total live cells relative to DMSO+CD3/28 ([1]; participant 2147b) | Fig 6B: total live cells relative to DMSO+CD3/28 ([1]; participant 2256) | Fig 6B: total live cells relative to DMSO+CD3/28 ([1]; participant 2461) | Total number of live cells (Fig 6A) ([1]; study participant 2027) | Total number of live cells (Fig 6A) ([1]; study participant 2147a) | Total number of live cells (Fig 6A) ([1]; study participant 2147b) | Total number of live cells (Fig 6A) ([1]; study participant 2256) | Total number of live cells (Fig 6A) ([1]; study participant 2461) | other results
C=CCNC1=C2C[C@@H](C)C[C@H](OC)[C@H](O)[C@@H](C)/C=C(\C)[C@H](OC(N)=O)[C@@H](OC)/C=C\C=C(/C)C(=O)NC(=CC1=O)C2=O [tanespimycin] | significantly lower | 0 % of activated DMSO | 0 % of activated DMSO | 0 % of activated DMSO | 2.15 % of activated DMSO | 0 % of activated DMSO | 0 % of activated DMSO |  |  |  |  |  |  |  |  |  |  |  |  |  | 
CC(C)[C@]12O[C@H]1[C@@H]1O[C@]13[C@]1(O[C@H]1C[C@H]1C4=C(CC[C@@]13C)C(=O)OC4)[C@@H]2O [triptolide] | significantly lower | 0 % of activated DMSO |  | 0 % of activated DMSO | 2.15 % of activated DMSO | 0 % of activated DMSO | 0 % of activated DMSO | 0.0% |  |  |  |  |  |  |  |  |  |  |  |  | 
COc1ccc(-c2cc(=O)c3c(O)cc(O)c(-c4cc(-c5cc(=O)c6c(O)cc(O)cc6o5)ccc4OC)c3o2)cc1 [isoginkgetin] | significantly lower | 303.03 % of activated DMSO |  | 63.16 % of activated DMSO | 4.84 % of activated DMSO |  | 39.4 % of activated DMSO |  | 8.41 % of activated DMSO | 0 % of activated DMSO |  |  |  |  |  |  |  |  |  |  | 
CO[C@H]([C@@H](C)[C@H]1O[C@]1(C)C[C@H](C)/C=C/C=C(\C)[C@H]1O[C@@H](CC(=O)O)CC[C@@H]1C)[C@@H](C)O [herboxidiene] | did not change proliferation rates | 67.27 % of activated DMSO |  | 0 % of activated DMSO | 1.61 % of activated DMSO |  | 42.05 % of activated DMSO | tended to reduce | 240.24 % of activated DMSO | 4.65 % of activated DMSO | 98.18 | 103.96 | 121.98 | 89.47 | 80.23 | 34.68 % of activated DMSO | 115.89 % of activated DMSO | 188.02 % of activated DMSO | 87.5 % of activated DMSO | 32.33 % of activated DMSO | Fig 6B: total live cells relative to DMSO+CD3/28 ([1]; participant 150b): 68; Fig 6B: total live cells relative to DMSO+CD3/28 ([1]; participant 1379): 22.5; Fig 6B: total live cells relative to DMSO+CD3/28 ([1]; participant 2161): 132.2; Fig 6B: total live cells relative to DMSO+CD3/28 ([1]; participant 5557): 117.65; Total number of live cells (Fig 6A) ([1]; study participant 1379): 82.06 % of activated DMSO; Total number of live cells (Fig 6A) ([1]; study participant 2161): 72.75 % of activated DMSO; Total number of live cells (Fig 6A) ([1]; study participant 5557): 99.29 % of activated DMSO
mithramycin A | significantly lower | 2.42 % of activated DMSO | 2.06 % of activated DMSO | 0 % of activated DMSO | 2.15 % of activated DMSO |  | 0 % of activated DMSO | tended to reduce; also recorded: inhibited the production of viral RNA in supernatant in 5 out of 6 study participants |  |  |  |  |  |  |  |  |  |  |  |  | 
CNc1ccc([N+](=O)[O-])c(Nc2ccc3[nH]ncc3c2)n1 [KRIBB11] | did not change proliferation rates |  |  | 47.37 % of activated DMSO | 93.55 % of activated DMSO |  |  | did not inhibit | 444.44 % of activated DMSO |  | 80 | 78.71 | 84.85 | 100 | 133.29 | 77.91 % of activated DMSO | 131.05 % of activated DMSO | 144.41 % of activated DMSO | 80.69 % of activated DMSO | 93.23 % of activated DMSO | Fig 6B: total live cells relative to DMSO+CD3/28 ([1]; participant 2747): 114.29; Total number of live cells (Fig 6A) ([1]; study participant 150a): 109.33 % of activated DMSO; Total number of live cells (Fig 6A) ([1]; study participant 156): 86.05 % of activated DMSO; Total number of live cells (Fig 6A) ([1]; study participant 163): 93.17 % of activated DMSO; Total number of live cells (Fig 6A) ([1]; study participant 2747): 107.08 % of activated DMSO; Polyadenylated HIV RNA in supernatant (Fig 5) ([2]; study participant 150a): 72.41 % of activated DMSO; Polyadenylated HIV RNA in supernatant (Fig 5) ([2]; study participant 156): 18.79 % of activated DMSO; Polyadenylated HIV RNA in supernatant (Fig 5) ([2]; study participant 163): 90.15 % of activated DMSO; Polyadenylated HIV RNA in supernatant (Fig 5) ([2]; study participant 2747): 72.27 % of activated DMSO
